Row | Compound | solubility (mole fraction) (in isobutanol, 283.15 K) | solubility (mole fraction) (in isobutanol, 293.15 K) | solubility (mole fraction) (in isobutanol, 303.15 K) | solubility (mole fraction) (in isobutanol, 313.15 K) | solubility (mole fraction) (in isobutanol, 323.15 K) | solubility (mole fraction) (in isobutanol, 333.15 K) | solubility (mole fraction) (in isopropanol, 283.15 K) | solubility (mole fraction) (in isopropanol, 293.15 K) | solubility (mole fraction) (in isopropanol, 303.15 K) | solubility (mole fraction) (in isopropanol, 313.15 K) | solubility (mole fraction) (in isopropanol, 323.15 K) | solubility (mole fraction) (in isopropanol, 333.15 K) | solubility (mole fraction) (in n-butanol, 283.15 K) | solubility (mole fraction) (in n-butanol, 293.15 K) | solubility (mole fraction) (in n-butanol, 303.15 K) | solubility (mole fraction) (in n-butanol, 313.15 K) | solubility (mole fraction) (in n-butanol, 323.15 K) | solubility (mole fraction) (in n-butanol, 333.15 K) | solubility (mole fraction) (in n-pentanol, 283.15 K) | solubility (mole fraction) (in n-pentanol, 293.15 K) | other results
1 | CNC(=O)c1cc(Oc2ccc(NC(=O)Nc3ccc(Cl)c(C(F)(F)F)c3)cc2)ccn1 | 0.000253 | 0.000379 | 0.000715 | 0.00104 | 0.00155 | 0.00216 | 0.000509 | 0.000638 | 0.00104 | 0.00152 | 0.00226 | 0.00325 | 0.000645 | 0.000816 | 0.0013 | 0.00193 | 0.00288 | 0.00417 | 0.000599 | 0.000819 | solubility (mole fraction) (in n-pentanol, 303.15 K): 0.00122; solubility (mole fraction) (in n-pentanol, 313.15 K): 0.00173; solubility (mole fraction) (in n-pentanol, 323.15 K): 0.00256; solubility (mole fraction) (in n-pentanol, 333.15 K): 0.00377; solubility (mole fraction) (in n-propanol, 283.15 K): 0.000678; solubility (mole fraction) (in n-propanol, 293.15 K): 0.000888; solubility (mole fraction) (in n-propanol, 303.15 K): 0.00137; solubility (mole fraction) (in n-propanol, 313.15 K): 0.00204; solubility (mole fraction) (in n-propanol, 323.15 K): 0.00313; solubility (mole fraction) (in n-propanol, 333.15 K): 0.00456
2 | CNC(=O)c1cc(Oc2ccc(NC(=O)Nc3ccc(Cl)c(C(F)(F)F)c3)cc2)ccn1.Cc1ccc(S(=O)(=O)O)cc1 | 6.18e-05 | 9.67e-05 | 0.000149 | 0.000216 | 0.000284 | 0.000423 | 7.81e-05 | 0.000109 | 0.00016 | 0.000229 | 0.000311 | 0.000442 | 0.000132 | 0.000163 | 0.000238 | 0.000316 | 0.000419 | 0.000541 | 5.78e-05 | 8.76e-05 | solubility (mole fraction) (in n-pentanol, 303.15 K): 0.000148; solubility (mole fraction) (in n-pentanol, 313.15 K): 0.000209; solubility (mole fraction) (in n-pentanol, 323.15 K): 0.000272; solubility (mole fraction) (in n-pentanol, 333.15 K): 0.000394; solubility (mole fraction) (in n-propanol, 283.15 K): 0.000139; solubility (mole fraction) (in n-propanol, 293.15 K): 0.000175; solubility (mole fraction) (in n-propanol, 303.15 K): 0.000258; solubility (mole fraction) (in n-propanol, 313.15 K): 0.000344; solubility (mole fraction) (in n-propanol, 323.15 K): 0.000456; solubility (mole fraction) (in n-propanol, 333.15 K): 0.000622

Reference: BigSolDB 2.1
